Values quoted from earlier work, collected in patent publication US20110212960A1, “NEW COMPOUNDS FOR THE TREATMENT OF CNS DISORDER” (BOEHRINGER INGELHEIM INTERNATIONAL GMBH, priority 2009, published 2011).

How the values were obtained:
human PDE9A = human PDE9A (Homo sapiens, UniProt O76083); conditions: concentrations of up to 100 micromolar; cited from earlier work
Murine PDE9A = target: T1, Murine PDE9A (Mus musculus, UniProt O70628); conditions: concentrations below 200 micromolar; cited from earlier work
T1 sequence (O70628 1-534): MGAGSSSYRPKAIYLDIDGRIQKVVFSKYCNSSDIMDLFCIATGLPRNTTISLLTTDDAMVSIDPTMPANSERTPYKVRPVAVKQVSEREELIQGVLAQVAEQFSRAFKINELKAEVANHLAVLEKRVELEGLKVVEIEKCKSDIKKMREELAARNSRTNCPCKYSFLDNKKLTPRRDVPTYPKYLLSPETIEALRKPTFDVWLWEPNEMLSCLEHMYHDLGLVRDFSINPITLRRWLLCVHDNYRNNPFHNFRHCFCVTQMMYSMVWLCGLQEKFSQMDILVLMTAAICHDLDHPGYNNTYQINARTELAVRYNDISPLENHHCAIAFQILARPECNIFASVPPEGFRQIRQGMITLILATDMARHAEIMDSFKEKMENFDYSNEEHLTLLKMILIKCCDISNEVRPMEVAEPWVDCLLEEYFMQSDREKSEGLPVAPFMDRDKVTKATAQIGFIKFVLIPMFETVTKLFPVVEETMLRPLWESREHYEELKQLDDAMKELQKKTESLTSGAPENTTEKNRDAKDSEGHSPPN

Chain of human PDE9A (O76083 whole entry): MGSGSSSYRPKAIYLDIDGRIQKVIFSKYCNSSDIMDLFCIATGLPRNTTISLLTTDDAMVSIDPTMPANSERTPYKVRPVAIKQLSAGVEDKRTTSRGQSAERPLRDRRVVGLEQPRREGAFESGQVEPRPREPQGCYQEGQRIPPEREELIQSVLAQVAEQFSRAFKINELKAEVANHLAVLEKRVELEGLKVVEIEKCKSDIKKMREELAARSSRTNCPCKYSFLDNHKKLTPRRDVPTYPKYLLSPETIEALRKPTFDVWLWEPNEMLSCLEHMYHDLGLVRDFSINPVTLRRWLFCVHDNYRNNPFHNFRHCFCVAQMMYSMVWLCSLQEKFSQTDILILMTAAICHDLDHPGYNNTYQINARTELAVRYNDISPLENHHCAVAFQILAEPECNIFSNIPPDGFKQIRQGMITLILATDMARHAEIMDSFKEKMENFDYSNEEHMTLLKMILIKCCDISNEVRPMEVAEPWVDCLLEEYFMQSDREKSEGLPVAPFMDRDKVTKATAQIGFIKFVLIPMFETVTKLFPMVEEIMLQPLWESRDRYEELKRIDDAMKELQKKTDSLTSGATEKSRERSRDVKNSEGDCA

CC(C)Cn1c(=O)n(C)c(=O)c2[nH]cnc21 [IBMX]
inhibition on the isolated enzyme (human PDE9A): no inhibition | inhibition of murine PDE9A (Murine PDE9A): not inhibited
